In patent US6750322B2, “Guanosine triphosphate (GTP) binding protein-coupled receptor proteins” (Banyu Pharmaceutical Co., Ltd., priority 1998, dated 2004):

Experiments:
rat BG2 [1] = target: T1, rat BG2 (Rattus norvegicus, UniProt Q9QYN8); assay: N-α-methylhistamine binding experiment on membrane fraction of COS7 cells expressing rat BG2; parameters: succeeded in isolating a full-length cDNA (rat BG2 cDNA) encoding a rat G protein-coupled receptor; expressed in transfected cells; host or cells: COS7 cells (membrane fraction)
Experimental: (§1) Vectors expressing each BG2 receptor were prepared using pEF1x (Biochemical and Biophysical Research Communications, 1998, 250:68-71). Each BG2 expression vector was introduced into COS7 cells by lipofection method. Genes were introduced using Lipofectamine PLUS reagent (GIBCO-BRL) according to the attached manual.
(§2) The cells were cultured at 37° C. for 24 hours in Dulbecco MEM medium (Asahi Techno Glass) to which fetal calf serum (Sigma) was added at a final concentration of 10%, in an incubator in which CO2 concentration was adjusted to 5%. Then, the cells were used for preparing a membrane fraction for the histamine binding experiment.
(§3) The cells into which each BG2 receptor-expressing vector was introduced were crushed in 50 mM Tris-HCl pH 7.4 solution according to the standard method, uncrushed cells were removed by centrifuging at 1,000 g for 10 min, and supernatant was centrifuged at 100,000 g for 10 min to obtain a membrane fraction. The membrane fraction was resuspended in the 50 mM Tris-HCl pH 7.4 solution and centrifuged twice at 100,000 g for 10 min to finally obtain the membrane fraction. The membrane fraction obtained in this manner was suspended in 50 mM Tris-HCl pH 7.4 solution and used for the binding experiment.
(§4) By using N-α-methylhistamine, a histamine analogue agonist, the binding experiment was conducted and the binding constants were determined (Table 2). […]

rat BG2-2 [2] = target: T2, rat BG2-2 (Rattus norvegicus, UniProt Q9QYN8); assay: N-α-methylhistamine binding experiment on membrane fraction of COS7 cells expressing rat BG2-2; parameters: Vectors expressing each BG2 receptor were prepared using pEF1x; expressed in transfected cells; host or cells: COS7 cells (membrane fraction)
Experimental: as §1, §2, §3, §4

human BG2 [3] = target: T3, human BG2 (Homo sapiens, UniProt Q9Y5N1); assay: N-α-methylhistamine binding experiment on membrane fraction of COS7 cells expressing human BG2; parameters: the G protein-coupled receptor protein encoded by the isolated human BG2 cDNA, the present inventors prepared cells expressing the protein; expressed in transfected cells
Experimental: as §1, §2, §3, §4

human BG2 [4] = target: T3, human BG2; assay: Intracellular cAMP measurement by CRE-β-lactamase reporter (method of Zlokarmik et al.) in human BG2-expressing HEK 293 cells with forskolin; assay type: cell-based; parameters: the G protein-coupled receptor protein encoded by the isolated human BG2 cDNA, the present inventors prepared cells expressing the protein; expressed in transfected cells; host or cells: HEK 293 cells carrying a CRE-beta-lactamase reporter (Aurora), hygromycin-selected; details: drug 1 μg/ml, forskolin 0.5 μM
Experimental: This human BG2 expression vector was introduced by lipofection method into HEK 293 cells in which β-lactamase gene was ligated downstream of CRE sequence (purchased from Aurora). For introducing the gene, Lipofectamine PLUS reagent (GIBCO-BRL) was used and the experimental manipulation was performed according to the attached manual.
Human BG2-expressing cells were selected by placing cells in a medium containing hygromycin, and cells which grew in the medium were used for a functional assay as human BG2-expressing cells.

[5] = tested on: control cells expressing nothing
Experimental: The intracellular cAMP concentration was measured by the method of Zlokarmik et al. (Science, 1998, 279:84). In the method of Zlokarmik et al., intracellular cAMP concentration was measured by introducing the gene in which β-lactamase gene was ligated downstream of the sequence that increased transcription activity of a gene downstream thereof dependently on the increase of intracellular cAMP concentration (CRE: cAMP responsible element), and by measuring fluorescence changes in florescent substrates to which an activity of β-lactamase transcribed and translated by the change of cAMP concentration in the cells was added.
Moreover, to measure the decrease of intracellular cAMP concentration mediated by the bound G protein in seven-transmembrane receptors, an activity of β-lactamase depending on the intracellular cAMP concentration was increased by adding forskolin and the decrease of cAMP in cells was measured with the decrease of β-lactamase activity when a ligand was reacted.
The cells in which the above reporter gene and human BG2 were expressed were washed with PBS(−) buffer (GIBCO-BRL) twice, Cell-dissociation buffer (GIBCO-BRL) was added thereto, and the cells were warmed at 37° C. in a CO2 incubator for 3 min and dissociated from a flask by gently tapping the incubation flask. […]

rat BG2 [6] = target: T1, rat BG2; details: 10 μM forskolin; various histamine concentrations; 15 min; rat BG2-expressing cells
Experimental: (§5) HEK293-CRE-BLA cells (Aurora) were cultured using the D-MEM/F-12 (1:1) mixed medium (GIBCO BRL) containing 10% fetal calf serum and 500 μg/ml G418 at 37° C. in the presence of 5% CO2. Effectene Transfection Reagent (QIAGEN) was used for gene introduction.
(§6) A day prior to the gene introduction, cells were spread on a 6-well plate (NUNC) at 3×10^5 cells/well and 0.4 μg each of the rat BG-2 and BG2-2 expression vectors was introduced into them using 10 μl/well Effectene Transfection Reagent according to the attached manual. The cells were cultured at 37° C. in the presence of 5% CO2 for 48 hours.
(§7) To isolate single cells into which the target gene was introduced, the cells were detached from a Petri dish by trypsin, and spread to a 96-well plate (NUNC) at 2000 to 250 cells/well. The cells were further cultured in selection medium containing hygromycin at 37° C. in the presence of 5% CO2 for 14 days. Wells containing cells consisting of a single colony were only selected and cells were passage-cultured to prepare a stable cell line. […] As a control, rat BG2-expressing cells were prepared in the same manner.

rat BG2-2 [7] = target: T2, rat BG2-2; details: 10 μM forskolin; various histamine concentrations; 15 min; rat BG2-2-expressing cells
Experimental: as §5, §6, §7

T2 sequence (Q9QYN8 whole entry): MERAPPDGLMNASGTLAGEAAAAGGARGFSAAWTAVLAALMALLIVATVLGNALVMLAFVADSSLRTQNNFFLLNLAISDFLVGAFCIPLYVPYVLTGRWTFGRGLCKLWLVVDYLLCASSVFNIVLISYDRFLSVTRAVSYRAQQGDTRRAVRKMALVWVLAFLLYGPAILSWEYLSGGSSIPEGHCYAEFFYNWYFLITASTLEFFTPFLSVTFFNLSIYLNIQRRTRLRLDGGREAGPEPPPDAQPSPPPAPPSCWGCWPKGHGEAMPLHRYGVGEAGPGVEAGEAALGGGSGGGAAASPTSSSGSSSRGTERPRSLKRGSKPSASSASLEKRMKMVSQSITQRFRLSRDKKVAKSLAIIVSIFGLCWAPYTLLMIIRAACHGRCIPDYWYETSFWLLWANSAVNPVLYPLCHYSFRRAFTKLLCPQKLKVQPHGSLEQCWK
T1 sequence (Q9QYN8 1-413 isoform Q9QYN8-2): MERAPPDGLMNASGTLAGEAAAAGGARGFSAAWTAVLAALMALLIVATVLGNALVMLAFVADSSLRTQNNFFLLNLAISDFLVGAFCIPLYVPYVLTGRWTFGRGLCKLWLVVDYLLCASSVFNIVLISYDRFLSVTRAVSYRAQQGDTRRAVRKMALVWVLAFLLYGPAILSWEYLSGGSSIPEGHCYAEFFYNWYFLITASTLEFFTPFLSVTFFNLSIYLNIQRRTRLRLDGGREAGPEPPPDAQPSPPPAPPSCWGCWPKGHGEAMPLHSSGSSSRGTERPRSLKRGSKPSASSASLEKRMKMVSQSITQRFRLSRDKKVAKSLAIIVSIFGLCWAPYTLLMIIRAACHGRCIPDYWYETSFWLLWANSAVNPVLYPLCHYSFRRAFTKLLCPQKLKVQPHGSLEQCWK
T3 sequence (Q9Y5N1 1-453 isoform Q9Y5N1-2): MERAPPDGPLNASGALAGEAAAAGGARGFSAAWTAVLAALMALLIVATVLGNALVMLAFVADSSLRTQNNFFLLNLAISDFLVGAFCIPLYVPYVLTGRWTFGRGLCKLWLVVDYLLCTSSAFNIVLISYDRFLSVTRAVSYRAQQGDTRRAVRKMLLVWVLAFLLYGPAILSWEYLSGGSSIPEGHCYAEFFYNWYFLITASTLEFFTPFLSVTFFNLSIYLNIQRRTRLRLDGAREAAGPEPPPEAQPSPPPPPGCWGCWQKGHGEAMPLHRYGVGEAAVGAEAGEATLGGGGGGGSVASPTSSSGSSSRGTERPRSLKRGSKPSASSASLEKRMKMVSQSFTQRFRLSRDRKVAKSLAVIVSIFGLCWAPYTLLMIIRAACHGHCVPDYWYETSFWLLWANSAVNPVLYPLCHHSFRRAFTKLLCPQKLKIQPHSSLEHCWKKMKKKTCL

For CNCCc1c[nH]cn1.Cl.Cl [N-α-methylhistamine, Histamine, N-alpha-methyl-dihydrochloride], the Kd (rat BG2 [1]; Rat BG2, COS7 membrane fraction, 30° C., 40 min, read-out: Binding Constant) was 0.503 ± 0.0198 nM, the “specific binding (in words)” value (rat BG2 [1]; rat BG2, nonspecific with 2 μM N-α-methylhistamine) was “specifically bound” and the Kd (rat BG2-2 [2]; Rat BG2-2, COS7 membrane fraction, 30° C., 40 min, read-out: Binding Constant) was 0.582 ± 0.0261 nM. For the same compound, the “specific binding (in words)” value (rat BG2-2 [2]; rat BG2-2, nonspecific with 2 μM N-α-methylhistamine) was “specifically bound”, the Kd (human BG2 [3]; Human BG2, COS7 membrane fraction, 30° C., 40 min, read-out: Binding Constant) was 0.548 ± 0.0751 nM and the “specific binding (in words)” value (human BG2 [3]; human BG2, nonspecific with 2 μM N-α-methylhistamine) was “specifically bound”.
With C[N+](C)(C)CCOC(N)=O [carbachol] the “reduction of intracellular cAMP concentration (in words)” value (“reduction” below) (human BG2 [4]) was “did not reduce intracellular cAMP concentration”.
NCCc1ccc(O)c(O)c1 [dopamine] was tested, and the “reduction” value (human BG2 [4]) was “did not reduce intracellular cAMP concentration”.
Cl.Cl.NCCc1c[nH]cn1 [histamine, Histamine dihydrochloride] was tested, and the “reduction” value (human BG2 [4]) was “intracellular cAMP concentration was decreased”, the “ratio of EM460/EM530 relative to the control” value (human BG2 [4]; control = 100, absence of forskolin = 0) was 35% and the “reduction” value [5] was “not observed”. The “decrease of intracellular cAMP concentration (in words)” value (rat BG2 [6]) was “decrease of intracellular cAMP concentration, dependent on histamine concentration, was confirmed” and the “decrease of intracellular cAMP concentration (in words)” value (rat BG2-2 [7]) was “decrease of intracellular cAMP concentration, dependent on histamine concentration, was confirmed”.
With NCCc1c[nH]c2ccc(O)cc12 [serotonine] the “reduction” value (human BG2 [4]) was “did not reduce intracellular cAMP concentration”.
